Source: patent US11559528B2, “BACE1 inhibition for the treatment of cancer” (The Cleveland Clinic Foundation, priority 2019, dated 2023)

Experiments:
T4121 GSCs = experiment: Tumorsphere formation assay; format: cell-based, human; conditions: MK-8931 50 μg/mL
Procedure: FIG. 16, panels A-E. MK-8931 Treatment Had Little Effect on Glioma Stem Cells. (A and B) Tumorsphere formation assay to examine the effect of MK-8931 treatment on glioma stem cells (GSCs). Representative images (A) of tumorsphere derived from T4121 GSCs treated with MK-8931 (50 μg/mL) or the vehicle control. Quantifications (B) show the number and size of tumorsphere derived from T4121 GSCs treated with MK-8931 (50 μg/mL) or the control. Data are shown as mean±SEM. NS (not significant)≥0.05, Student's t-test. […] GAPDH was blotted as loading control. (D) Immunoblot analysis of the apoptotic markers cleaved-PARP and cleaved caspase-3 in GSCs (T387 and T4121) treated with MK-8931 (50 μg/mL), etoposide (Etop, 1 μM), or the vehicle control for different time as indicated. GAPDH was blotted as loading control. […] Ctl: Control; Etop: Etoposide. (E) Cell viability assay to examine the effect of MK-8931 treatment on proliferation of glioma stem cells. […] Data are shown as mean±SEM. NS (not significant)≥0.05, Student's t-test.
Tumorsphere formation assay was performed as described in our previous study (Shi et al., 2018). Glioma cells (1000 cells) were plated on the one well of a 96-well plate and maintained in the stem cell medium. […] The sizes and numbers of the tumor-sphere in the control and MK-8931 groups were furthered analyzed with ImageJ.

GBM xenografts (T387) = experiment: Intracranial GBM xenografts from T387 glioma stem cells; format: in vivo, mouse
From the text: FIG. 13, panels A-C. BACE1 Inhibition by MK-8931 Converts M2 TAMs into M1 Macrophages in GBM Xenografts. (A and B) Density analysis of M2 TAMs by immunofluorescent staining of the M2 TAM marker (CD163 or FIZZ1) and the total TAM marker IBA1 and in GBM xenografts (T387) treated with MK-8931 or vehicle control. GBM xenografts were established by implantation of glioma stem cells (T387) through intracranial injection. […] Representative immunofluorescent images (A) showing M2 TAMs (CD163′ or FIZZ1^+, in red) and total TAMs (IBA1^+, in green) in the MK-8931-treated or control GBM xenografts. […] (C and D) Density analysis of M1 TAMs by immunofluorescent staining of the M TAM marker (HLA-DR or CD11c) and the total TAM marker IBA1 and in GBM xenografts (T387) treated with MK-8931 or vehicle control. […] Representative immunofluorescent images (C) showing M1 TAMs (HLA-DR^+ or CD11c^+, in red) and total TAMs (IBA1^+, in green) in the MK-8931-treated or control GBM xenografts. […] Scale bars represent 3 μM. Ctl: Control; MK: MK-8931.
(A-C) A preclinical trial of MK-8931 for GBM treatment in GSC-derived xenograft models. […] When humane endpoints occur, mouse was anesthetized and brain bearing tumor was harvested. Representative bioluminescent images (A) of intracranial GBM xenografts treated with MK-8931 or the vehicle control on day 7 (before treatment), day 17 and day 27 (treatment for 10 and 20 days) are shown. […] (D and E) In vivo phagocytosis of TAMs against human glioma cells in GBM xenografts treated with MK-8931 or the vehicle control. […] Representative images (D) showing in vivo TAM phagocytosis as the inclusion body of a glioma cell (TRA-1-85+, in red) within a TAM (IBA1^+, in green) in the MK-8931 treated GBM xenografts but not in the control tumors. […] (F and G) Detection of apoptosis by immunofluorescent staining of cleaved caspase-3 the GSC-derived xenografts treated with MK-8931 or the vehicle control. […] (H and I) Vessel density analysis by immunofluorescent staining of CD31 in the GSC-derived xenografts treated with MK-8931 or the vehicle control.

[1] = tested on: GBM xenografts derived from T4121 GSCs; experiment: Intracranial GBM xenografts from T4121 glioma stem cells; format: in vivo, mouse
[2] = tested on: H1002 and H146 lung cancer cells; experiment: Cell titer viability assay on lung cancer cells; format: cell-based, human; conditions: indicated concentrations, 72 hours, n=3
Procedure: (A) Effects of BACE1 inhibitors on lung cancer cell proliferation. H1002 and H146 lung cancer cells were treated with the indicated concentrations of the BACE1 inhibitor AZD3293, MK-8931, AZD3839, or PF-06751979 (PF) for 72 hours. Cell viability was assessed by cell titer assay (n=3). (B-D) A preclinical trial of MK-8931 for lung cancer treatment in xenograft models. H1002 lung cancer cells (5×106) were transplanted into mouse right flank through subcutaneous injection to establish subcutaneous lung cancer xenografts. […] Tumors dissected from mice of each group were photographed (C) and weighed (D). […] Data are shown as mean SEM. p **<0.01, Student's t-test.

[3] = tested on: bone marrow-derived macrophages (BMDMs); experiment: Phagocytosis assay, bone marrow-derived macrophages against glioma cells; format: cell-based, mouse; conditions: MK-8931 50 μg/mL two days; T4121; p<0.001
[4] = 30 mg/kg once daily oral gavage two weeks, p<0.001
[5] = 30 mg/kg once daily oral, p<0.01
[6] = 30 mg/kg once daily oral, p<0.05

## CN1C(N)=N[C@](C)(c2cc(NC(=O)c3ccc(F)cn3)ccc2F)CS1(=O)=O [MK-8931]
T4121 GSCs
  number and size of tumorspheres: did not affect GSC sphere formation
GBM xenografts (T387); [4]
  density of M1 TAMs (HLA-DR+/IBA1+ or CD11c+/IBA1+): significantly increased density of M1 TAMs
  density of M2 TAMs (CD163+/IBA1+ or FIZZ1+/IBA1+): significantly reduced density of M2 TAMs
GBM xenografts (T387); 30 mg/kg once daily oral, day 7, 17 and 27
  tumor growth (mean bioluminescence): Suppressed GBM Tumor Growth
GBM xenografts (T387); 30 mg/kg once daily oral, log-rank p<0.05
  survival (Kaplan-Meier): significantly extended the survival of animals bearing the GBM xenografts
GBM xenografts (T387); [5]
  apoptosis (cleaved caspase-3+ cells): significantly increased apoptosis
  in vivo TAM phagocytosis (inclusion bodies): promoted TAM phagocytosis
  proliferative cells (Ki-67+): significantly reduced proliferative cells
GBM xenografts (T387); [6]
  GSC population (SOX2+ cells): significant reduced GSCs
  vessel density (CD31): significantly reduced vessel density
[1]; [4]
  IL1β expression (IHC intensity): significantly induced IL1β expression
  IL10 expression (IHC intensity): significantly reduced IL10 expression
  TGF-β expression (IHC intensity): significantly reduced TGF-β expression
  TNFα expression (IHC intensity): significantly induced TNFα expression
[1]; 30 mg/kg/daily oral, Days 7, 14, and 21
  tumor growth (mean bioluminescence): significantly inhibited tumor growth of GBM xenografts
[1]; 30 mg/kg/daily oral, log-rank p<0.01
  survival (Kaplan-Meier): significantly extended the survival of mice bearing the GBM tumors
[1]; 30 mg/kg/daily oral, p<0.001
  apoptosis (cleaved caspase-3+ cells): significantly increased apoptosis
[1]; 30 mg/kg/daily oral, p<0.01
  GSC population (SOX2+ cells): significantly reduced GSCs
  proliferative cells (Ki-67+): significantly reduced proliferative cells
  vessel density (CD31): significantly reduced vessel density
[2]
  lung cancer cell proliferation (cell viability): suppressed lung cancer cell proliferation
[3]
  phagocytosis of BMDMs against human glioma cells: significantly promoted phagocytosis of BMDMs
